Assay results published in ChEMBL document CHEMBL1126890, “A tight binding inhibitor of 5-aminoimidazole ribonucleotide carboxylase” (J Med Chem, 1993).

How the values were obtained:
Design in all cases: species or system Aves
[1] = Inhibition of Avian AIR carboxylase in presence of 0.5 nM of the compound
[2] = Changes in free energy concentration
[3] = Kobs versus inhibitory concentration

Ki [1]: 1.3 nM
Ki [2]: 1.6 nM
Ki [3]: 1.4 nM
SMILES: Nc1c([N+](=O)[O-])ncn1[C@@H]1O[C@H](COP(=O)(O)O)[C@@H](O)[C@H]1O
